Source: PMC4467398, “Preclinical antitumor activity of ST7612AA1: a new oral thiol-based histone deacetylase (HDAC) inhibitor” (Oncotarget, 2014)

Test system: DOHH2 and TMD8 DLBCL cells
Assay: Gene expression profiling (HumanHT-12 v4 BeadChip, limma), ST7612AA1 300 nM 8 hrs vs DMSO
Format: cell-based, human
Details: 300 nM 8 hrs

**Q.** What does the source list for `CC(=O)SCCCCC[C@H](NC(=O)[C@H]1CCC(=O)N1)C(=O)Nc1ccccc1` [ST7612AA1]?
**A.** AveExpr.ST7612 NOSIP (probe ILMN_1759436): 7.06E-01; AveExpr.ST7612 NPC2 (probe ILMN_1716678): 8.44E-01; AveExpr.ST7612 NPL (probe ILMN_1782070): 7.76E-01; AveExpr.ST7612 NPL (probe ILMN_2149494): 8.88E-01; AveExpr.ST7612 NQO2 (probe ILMN_1712918): 8.69E-01; AveExpr.ST7612 NUB1 (probe ILMN_1665291): 7.20E-01; AveExpr.ST7612 NUMB (probe ILMN_2331266): 7.27E-01; AveExpr.ST7612 NXF1 (probe ILMN_1705783): 8.80E-01; AveExpr.ST7612 NXF1 (probe ILMN_2358652): 7.18E-01; AveExpr.ST7612 P704P (probe ILMN_1793950): 6.85E-01; AveExpr.ST7612 PAQR8 (probe ILMN_1694589): 7.20E-01; AveExpr.ST7612 PCYOX1 (probe ILMN_1679725): 7.89E-01; AveExpr.ST7612 PDXK (probe ILMN_1672504): 8.94E-01; AveExpr.ST7612 PECI (probe ILMN_2384536): 8.25E-01; AveExpr.ST7612 PEX16 (probe ILMN_1745655): 7.84E-01; AveExpr.ST7612 PIM2 (probe ILMN_1748283): 7.43E-01; AveExpr.ST7612 PKIA (probe ILMN_2337974): 7.37E-01; AveExpr.ST7612 PLD3 (probe ILMN_1666976): 8.81E-01; AveExpr.ST7612 PMAIP1 (probe ILMN_2098446): 8.50E-01; AveExpr.ST7612 PNKD (probe ILMN_1774604): 7.25E-01; AveExpr.ST7612 PRDX2 (probe ILMN_1767766): 8.35E-01; AveExpr.ST7612 PRDX2 (probe ILMN_2382829): 7.41E-01; AveExpr.ST7612 PTGER4 (probe ILMN_1795930): 9.03E-01; AveExpr.ST7612 PTTG1 (probe ILMN_1753196): 6.92E-01; AveExpr.ST7612 RAB8B (probe ILMN_2173004): 8.71E-01; AveExpr.ST7612 RAB24 (probe ILMN_2379718): 7.77E-01; AveExpr.ST7612 RABGAP1 (probe ILMN_2061950): 6.86E-01; AveExpr.ST7612 RAPGEF2 (probe ILMN_3247261): 8.54E-01; AveExpr.ST7612 RASAL1 (probe ILMN_1793517): 7.10E-01; AveExpr.ST7612 RASD2 (probe ILMN_2170209): 7.75E-01; AveExpr.ST7612 REEP2 (probe ILMN_1666057): 6.85E-01; AveExpr.ST7612 RFC1 (probe ILMN_2217935): 7.23E-01; AveExpr.ST7612 RHBDD2 (probe ILMN_1809437): 7.80E-01; AveExpr.ST7612 RHBDD2 (probe ILMN_2406410): 8.04E-01; AveExpr.ST7612 RHOBTB3 (probe ILMN_1744949): 8.25E-01; AveExpr.ST7612 RHOC (probe ILMN_1673305): 9.02E-01; AveExpr.ST7612 RNASE4 (probe ILMN_1776602): 7.33E-01; AveExpr.ST7612 RND2 (probe ILMN_1736533): 7.06E-01; AveExpr.ST7612 RNF24 (probe ILMN_1717809): 7.24E-01; AveExpr.ST7612 RTN2 (probe ILMN_1749115): 8.60E-01; AveExpr.ST7612 RTN3 (probe ILMN_2363065): 7.08E-01; AveExpr.ST7612 SBK1 (probe ILMN_1728298): 8.80E-01; AveExpr.ST7612 SCARNA11 (probe ILMN_3236010): 6.95E-01; AveExpr.ST7612 SCARNA13 (probe ILMN_3235325): 7.18E-01; AveExpr.ST7612 SCARNA14 (probe ILMN_3247636): 7.31E-01; AveExpr.ST7612 SDCBP (probe ILMN_2363586): 8.86E-01; AveExpr.ST7612 SDCBP (probe ILMN_2363591): 8.22E-01; AveExpr.ST7612 SDHAP2 (probe ILMN_3248781): 7.07E-01; AveExpr.ST7612 SEMA4D (probe ILMN_1687533): 7.86E-01; AveExpr.ST7612 SEMA4F (probe ILMN_1805007): 7.51E-01; AveExpr.ST7612 SERPINB9 (probe ILMN_1742052): 7.55E-01; AveExpr.ST7612 SERPINI1 (probe ILMN_1814333): 7.79E-01; AveExpr.ST7612 SGK (probe ILMN_1702487): 8.82E-01; AveExpr.ST7612 SH3GLB2 (probe ILMN_2158336): 6.85E-01; AveExpr.ST7612 SLC23A2 (probe ILMN_1746578): 7.82E-01; AveExpr.ST7612 SLC25A4 (probe ILMN_1681670): 8.53E-01; AveExpr.ST7612 SLC25A4 (probe ILMN_2211780): 7.98E-01; AveExpr.ST7612 SLC25A23 (probe ILMN_1679949): 7.04E-01; AveExpr.ST7612 SLC44A2 (probe ILMN_1771987): 7.92E-01; AveExpr.ST7612 SLC45A3 (probe ILMN_1726114): 7.11E-01; AveExpr.ST7612 SLFN11 (probe ILMN_1752520): 7.62E-01; AveExpr.ST7612 SNAP23 (probe ILMN_1687519): 8.74E-01; AveExpr.ST7612 SNORD31 (probe ILMN_2072391): 7.85E-01; AveExpr.ST7612 SORT1 (probe ILMN_1707077): 8.42E-01; AveExpr.ST7612 SPAG9 (probe ILMN_2263718): 7.33E-01; AveExpr.ST7612 SPINT2 (probe ILMN_1800739): 8.11E-01; AveExpr.ST7612 SREBF1 (probe ILMN_1663035): 7.22E-01; AveExpr.ST7612 SRGN (probe ILMN_1760347): 7.62E-01; AveExpr.ST7612 SRGN (probe ILMN_2169152): 7.60E-01; AveExpr.ST7612 STARD10 (probe ILMN_1717052): 8.01E-01; AveExpr.ST7612 STK17B (probe ILMN_1798543): 7.91E-01; AveExpr.ST7612 STMN3 (probe ILMN_3244117): 9.01E-01; AveExpr.ST7612 STX3 (probe ILMN_1659544): 8.71E-01; AveExpr.ST7612 SUSD3 (probe ILMN_1785570): 8.58E-01; AveExpr.ST7612 TACC1 (probe ILMN_1770084): 7.64E-01
